Results from patent publication US7709494B2, “4,5-diphenyl-pyrimidinyl-oxy or -mercapto substituted carboxylic acids, method for the production and use thereof as medicaments” (Sanofi-Aventis, priority 2006, dated 2010).

Molecular target: T1, GPCR GPR40 (Homo sapiens, UniProt O14842)
T1 construct: expressed in transfected cells; host or cells: HEK293
Assay: In vitro FLIPR assay with recombinant cells which express the GPCR GPR40 (agonist-induced intracellular Ca2+ change)
Type: cell-based
Settings: recombinant HEK293 cells expressing GPR40; 100 μM test substance; percentage change relative to control (0%: no test substance; 100%: 10 μM reference agonist linoleic acid)
Method: In vitro FLIPR assay with recombinant cells which express the GPCR GPR40
Function-testing assays were carried out by means of the FLIPR technique (“Fluorescence Imaging Plate Reader”, Molecular Devices Corp.). For this purpose, agonist-induced changes in the intracellular concentration of Ca^2+ in recombinant HEK293 cells which expressed the GPCR. GPR40 were determined.
For the investigations, cells were seeded in 96-well microtiter plates (60 000 cells/well) and allowed to grow overnight. The medium was removed and the cells were incubated in buffer which contained the fluorescent dye fluo-4. After this loading with dye, the cells were washed, test substance was added, and changes in the intracellular Ca^2+ concentration were measured in the FLIPR instrument. Results have been presented as percentage change relative to the control (0%: no test substance added; 100%: 10 μM reference agonist linoleic acid added).

T1 sequence (O14842 whole entry): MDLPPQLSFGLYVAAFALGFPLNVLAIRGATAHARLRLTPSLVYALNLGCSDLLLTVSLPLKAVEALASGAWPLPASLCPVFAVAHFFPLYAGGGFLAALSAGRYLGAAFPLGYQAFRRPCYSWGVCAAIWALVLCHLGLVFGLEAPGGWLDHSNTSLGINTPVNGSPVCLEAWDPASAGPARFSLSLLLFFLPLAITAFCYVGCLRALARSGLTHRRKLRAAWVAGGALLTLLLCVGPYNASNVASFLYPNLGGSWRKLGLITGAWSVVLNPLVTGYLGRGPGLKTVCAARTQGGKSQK

Row | Compound | % activation @ 100 μM [%]
1 | O=C(O)[C@H]1CC[C@@H](COc2ncc(-c3ccccc3)c(-c3ccccc3)n2)C1 (relative stereo) [Example 3, cis-3-(4,5-Diphenylpyrimidin-2-yloxymethyl)cyclopentanecarboxylic acid] | 76
2 | O=C(O)[C@H]1CCCC(Oc2ncc(-c3ccccc3)c(-c3ccccc3)n2)C1 (stereo partly drawn) [Example 6, (1S)-3-(4,5-Diphenylpyrimidin-2-yloxy)cyclohexanecarboxylic acid] | 66
3 | cis-(4,5-Diphenylpyrimidin-2-yloxymethyl)cyclohexanecarboxylic acid [Example 2] | 91
4 | O=C(O)C1CC1CCCCOc1ncc(-c2ccccc2)c(-c2ccccc2)n1 (stereo not drawn) [Example 9, 2-[4-(4,5-Diphenylpyrimidin-2-yloxy)butyl]cyclopropanecarboxylic acid] | 101
5 | O=C(O)[C@H]1CCC[C@@H](COc2ncc(-c3ccccc3)c(-c3ccccc3)n2)C1 [Example 1, (1S,3R)-3-(4,5-Diphenylpyrimidin-2-yloxymethyl)cyclohexanecarboxylic acid] | 74
6 | O=C(O)CC12CC3CC(C1)CC(Sc1ncc(-c4ccccc4)c(-c4ccccc4)n1)(C3)C2 [Example 5, [3-(4,5-Diphenylpyriidin-2-ylsulfanyl)adamantan-1-yl]acetic acid] | 64
7 | O=C(O)C1CC1CCCCCSc1ncc(-c2ccccc2)c(-c2ccccc2)n1 (stereo not drawn) [Example 7, 2-[5-(4,5-Diphenylpyrimidin-2-ylsulfanyl)pentyl]cyclopropanecarboxylic acid] | 101
8 | O=C(O)C1CCC(COc2ncc(-c3ccccc3)c(-c3ccccc3)n2)CC1 (mixture of isomers) [Example 4, Cis/trans-4-(4,5-diphenylpyrimidin-2-yloxymethyl)cyclohexanecarboxylic cid] | 96
9 | CCC(CCC1CC1C(=O)O)Oc1ncc(-c2ccccc2)c(-c2ccccc2)n1 (stereo not drawn) [Example 10, 2-[3-(4,5-Diphenylpyrimidin-2-yloxy)pentyl]cyclopropanecarboxylic acid] | 5
